In ChEMBL document CHEMBL5113427, “Bioevaluation of a dual PI3K/HDAC inhibitor for the treatment of diffuse large B-cell lymphoma” (Bioorg Med Chem Lett, 2022):
Active and inactive are the calls of the source.

Columns and labels:
[1] = target: T1, Histone deacetylase (Homo sapiens) (UniProt Q13547+O15379+Q9UBN7+Q92769+Q9UQL6+Q8WUI4+Q9BY41+Q96DB2+P56524+Q9UKV0+Q969S8); experiment: Inhibition of HDAC in human DOHH-2 cells assessed as […] level at 0.5 to 12 hrs measured by Western blot analysis; format: cell-based; conditions: time 0.5-12 hrs
[2] = target: T1, Histone deacetylase (Homo sapiens); experiment: Inhibition of HDAC in human OCILY3 cells assessed as effect on pS6 levels at 0.01 to 1 uM measured by Western blot analysis; format: cell-based; conditions: dose 0.01-1 µM
[3] = tested on: SUD4; experiment: Antiproliferative activity against human SU-DHL-4 cells measured after 4 days by Cell Titer Glo Luminescent Cell Viability Assay; format: functional, cell-based; conditions: SU-DHL-4, 96 h
[4] = target: T1, Histone deacetylase (Homo sapiens); experiment: Inhibition of HDAC in human DOHH-2 cells assessed as effect on pS6 levels at 0.01 to 1 uM measured by Western blot analysis; format: cell-based; conditions: dose 0.01-1 µM
[5] = target: T1, Histone deacetylase (Homo sapiens); experiment: Inhibition of HDAC in human DOHH-2 cells assessed as Down-regulation of STAT3 phosphorylation at Y705 residue at 0.01 to 1 uM measured by Western blot analysis; format: cell-based; conditions: dose 0.01-1 µM
[6] = Antiproliferative activity against human HBL1 cells measured after 4 days by Cell Titer Glo Luminescent Cell Viability Assay; format: functional, cell-based; conditions: HBL1, 96 h
[7] = tested on: SU-DHL-6; experiment: Antiproliferative activity against human SU-DHL-6 cells measured after 4 days by Cell Titer Glo Luminescent Cell Viability Assay; format: functional, cell-based; conditions: SU-DHL-6, 96 h
[8] = target: T1, Histone deacetylase (Homo sapiens); experiment: Inhibition of HDAC in human DOHH-2 cells assessed as down-regulation of STAT3 phosphorylation at Y705 residue at 0.5 to 12 hrs measured by Western blot analysis; format: cell-based; conditions: time 0.5-12 hrs
[9] = tested on: DOHH-2; experiment: Antiproliferative activity against human DOHH-2 cells measured after 4 days by Cell Titer Glo Luminescent Cell Viability Assay; format: functional, cell-based; conditions: DOHH-2, 96 h
[10] = tested on: SU-DHL10; experiment: Antiproliferative activity against human SU-DHL-10 cells measured after 4 days by Cell Titer Glo Luminescent Cell Viability Assay; format: functional, cell-based; conditions: SU-DHL10, 96 h
[11] = tested on: WSUDLCL2; experiment: Antiproliferative activity against human WSUDLCL2 cells measured after 4 days by Cell Titer Glo Luminescent Cell Viability Assay; format: functional, cell-based; conditions: WSUDLCL2, 96 h
[12] = tested on: OCI-LY19; experiment: Antiproliferative activity against human OCILY19 cells measured after 4 days by Cell Titer Glo Luminescent Cell Viability Assay; format: functional, cell-based; conditions: OCI-LY19, 96 h
[13] = tested on: OCI-Ly3; experiment: Induction of apoptosis in human OCILY3 cells assessed as upregulation of cleaved-caspase3 at 0.01 to 1 uM measured by Western blot analysis; format: functional, cell-based; conditions: dose 0.01-1 µM
[14] = target: T1, Histone deacetylase (Homo sapiens); experiment: Inhibition of HDAC in human OCILY3 cells assessed as […] level at 0.5 to 12 hrs measured by Western blot analysis; format: cell-based; conditions: time 0.5-12 hrs
[15] = target: T1, Histone deacetylase (Homo sapiens); experiment: Inhibition of HDAC in human DOHH-2 cells assessed as increase in Ac-H3 levels at 0.01 to 1 uM measured by Western blot analysis; format: cell-based; conditions: dose 0.01-1 µM
[16] = tested on: OCI-Ly7; experiment: Antiproliferative activity against human OCILY7 cells measured after 4 days by Cell Titer Glo Luminescent Cell Viability Assay; format: functional, cell-based; conditions: OCI-Ly7, 96 h
[17] = target: T1, Histone deacetylase (Homo sapiens); experiment: Inhibition of HDAC in human OCILY3 cells assessed as increase in Ac-H3 levels at 0.01 to 1 uM measured by Western blot analysis; format: cell-based; conditions: dose 0.01-1 µM
[18] = tested on: OCI-Ly3; experiment: Induction of apoptosis in human OCILY3 cells at 0.01 to 1 uM measured by flow cytometry analysis; format: functional, cell-based; conditions: dose 0.01-1 µM, DDE = dose-dependent effect
[19] = target: Phosphatidylinositol 4,5-bisphosphate 3-kinase catalytic subunit alpha isoform (Homo sapiens) (UniProt P42336); experiment: Inhibition of PI3Kalpha in human OCILY3 cells assessed as decrease in AKT phosphorylation at 0.5 to 1 hrs measured by western blot analysis; format: cell-based; conditions: time 0.5-1 hrs
[20] = target: T1, Histone deacetylase (Homo sapiens); experiment: Inhibition of HDAC in human DOHH-2 cells assessed as decrease in p-S6 level at 0.5 to 12 hrs measured by Western blot analysis; format: cell-based; conditions: time 0.5-12 hrs
[21] = target: Phosphatidylinositol 4,5-bisphosphate 3-kinase catalytic subunit alpha isoform (Homo sapiens) (UniProt P42336); experiment: Inhibition of PI3Kalpha in human DOHH-2 cells assessed as decrease in AKT phosphorylation at 0.5 to 1 hrs measured by western blot analysis; format: cell-based; conditions: time 0.5-1 hrs
[22] = tested on: KARPAS-422; experiment: Antiproliferative activity against human KARPAS-422 cells measured after 4 days by Cell Titer Glo Luminescent Cell Viability Assay; format: functional, cell-based; conditions: KARPAS-422, 96 h
[23] = tested on: DOHH-2; experiment: Induction of apoptosis in human DOHH-2 cells assessed as upregulation of cleaved-caspase3 at 0.01 to 1 uM measured by Western blot analysis; format: functional, cell-based; conditions: dose 0.01-1 µM
[24] = target: T1, Histone deacetylase (Homo sapiens); experiment: Inhibition of HDAC in human OCILY3 cells assessed as Down-regulation of STAT3 phosphorylation at Y705 residue at 0.01 to 1 uM measured by Western blot analysis; format: cell-based; conditions: dose 0.01-1 µM
[25] = target: T1, Histone deacetylase (Homo sapiens); experiment: Inhibition of HDAC in human DOHH-2 cells assessed as increase in Ac-p53 levels at 0.01 to 1 uM measured by Western blot analysis; format: cell-based; conditions: dose 0.01-1 µM
[26] = tested on: SU-DHL-5; experiment: Antiproliferative activity against human SU-DHL-5 cells measured after 4 days by Cell Titer Glo Luminescent Cell Viability Assay; format: functional, cell-based; conditions: SU-DHL-5, 96 h
[27] = tested on: Toledo; experiment: Antiproliferative activity against human Toledo cells measured after 4 days by Cell Titer Glo Luminescent Cell Viability Assay; format: functional, cell-based; conditions: 96 h
[28] = tested on: WSU-NHL; experiment: Antiproliferative activity against human WSU-NHL cells measured after 4 days by Cell Titer Glo Luminescent Cell Viability Assay; format: functional, cell-based; conditions: 96 h
[29] = tested on: DOHH-2; experiment: Induction of apoptosis in human DOHH-2 cells assessed as upregulation of cleaved-PARP at 0.01 to 1 uM measured by Western blot analysis; format: functional, cell-based; conditions: dose 0.01-1 µM
[30] = tested on: Pfeiffer; experiment: Antiproliferative activity against human Pfeiffer cells measured after 4 days by Cell Titer Glo Luminescent Cell Viability Assay; format: functional, cell-based; conditions: 96 h
[31] = tested on: SUD4; experiment: Antitumour activity against CM-Dil labeled human SU-DHL-4 cells xenografted in zebrafish embryo assessed as decrease in tumor growth at 3 uM measured by fluorescence based assay; format: functional, cell-based
[32] = target: Phosphatidylinositol 4,5-bisphosphate 3-kinase catalytic subunit alpha isoform (Homo sapiens) (UniProt P42336); experiment: Inhibition of PI3Kalpha in human OCILY3 cells assessed as decrease in AKT phosphorylation at Ser473 residue at 0.01 to 1 uM measured by western blot analysis; format: cell-based; conditions: dose 0.01-1 µM
[33] = target: T1, Histone deacetylase (Homo sapiens); experiment: Inhibition of HDAC in human OCILY3 cells assessed as increase in Ac-p53 levels at 0.01 to 1 uM measured by Western blot analysis; format: cell-based; conditions: dose 0.01-1 µM
[34] = target: Phosphatidylinositol 4,5-bisphosphate 3-kinase catalytic subunit alpha isoform (Homo sapiens) (UniProt P42336); experiment: Inhibition of PI3Kalpha in human OCILY3 cells assessed as decrease in AKT phosphorylation at Thr308 residue at 0.01 to 1 uM measured by western blot analysis; format: cell-based; conditions: dose 0.01-1 µM
[35] = tested on: OCI-Ly3; experiment: Antiproliferative activity against human OCILY3 cells measured after 4 days by Cell Titer Glo Luminescent Cell Viability Assay; format: functional, cell-based; conditions: OCI-Ly3, 96 h
[36] = tested on: SU-DHL-8; experiment: Antiproliferative activity against human SU-DHL-8 cells measured after 4 days by Cell Titer Glo Luminescent Cell Viability Assay; format: functional, cell-based; conditions: SU-DHL-8, 96 h
[37] = tested on: DOHH-2; experiment: Induction of apoptosis in human DOHH-2 cells at 0.01 to 1 uM measured by flow cytometry analysis; format: functional, cell-based; conditions: dose 0.01-1 µM, DDE = dose-dependent effect
[38] = tested on: OCI-Ly3; experiment: Induction of apoptosis in human OCILY3 cells assessed as upregulation of cleaved-PARP at 0.01 to 1 uM measured by Western blot analysis; format: functional, cell-based; conditions: dose 0.01-1 µM
[39] = target: Phosphatidylinositol 4,5-bisphosphate 3-kinase catalytic subunit alpha isoform (Homo sapiens) (UniProt P42336); experiment: Inhibition of PI3Kalpha in human DOHH-2 cells assessed as decrease in AKT phosphorylation at 0.01 to 1 uM measured by western blot analysis; format: cell-based; conditions: dose 0.01-1 µM
[40] = tested on: U2932; experiment: Antiproliferative activity against human U2932 cells measured after 4 days by Cell Titer Glo Luminescent Cell Viability Assay; format: functional, cell-based; conditions: U2932, 96 h
[41] = target: T1, Histone deacetylase (Homo sapiens); experiment: Inhibition of HDAC in human OCILY3 cells assessed as decrease in p-S6 level at 0.5 to 12 hrs measured by Western blot analysis; format: cell-based; conditions: time 0.5-12 hrs
[42] = target: T1, Histone deacetylase (Homo sapiens); experiment: Inhibition of HDAC in human OCILY3 cells assessed as down-regulation of STAT3 phosphorylation at Y705 residue at 0.5 to 12 hrs measured by Western blot analysis; format: cell-based; conditions: time 0.5-12 hrs
[43] = tested on: DOHH-2; experiment: Induction of cell cycle arrest in human DOHH-2 cells assessed as accumulation at S phase at 0.01 to 1 uM measured by flow cytometry analysis; format: functional, cell-based; conditions: dose 0.01-1 µM, DDE = dose-dependent effect
[44] = tested on: OCI-Ly3; experiment: Induction of apoptosis in human OCILY3 cells measured by flow cytometry analysis; format: functional, cell-based
[45] = target: T1, Histone deacetylase (Homo sapiens); experiment: Inhibition of HDAC in human DOHH-2 cells assessed as effect on pS6 levels at 10 uM measured by Western blot analysis; format: cell-based
[46] = target: T1, Histone deacetylase (Homo sapiens); experiment: Inhibition of HDAC in human OCILY3 cells assessed as effect on pS6 levels at 10 uM measured by Western blot analysis; format: cell-based
[47] = tested on: DOHH-2; experiment: Induction of cell cycle arrest in human DOHH-2 cells assessed as accumulation at S phase measured by flow cytometry analysis; format: functional, cell-based
[48] = tested on: DOHH-2; experiment: Induction of cell cycle arrest in human DOHH-2 cells assessed as accumulation at G2/M phase measured by flow cytometry analysis; format: functional, cell-based
[49] = target: T1, Histone deacetylase (Homo sapiens); experiment: Inhibition of HDAC in human OCILY3 cells assessed as Down-regulation of STAT3 phosphorylation at Y705 residue at 10 uM measured by Western blot analysis; format: cell-based
[50] = target: T1, Histone deacetylase (Homo sapiens); experiment: Inhibition of HDAC in human DOHH-2 cells assessed as Down-regulation of STAT3 phosphorylation at Y705 residue at 10 uM measured by Western blot analysis; format: cell-based
[51] = tested on: DOHH-2; experiment: Induction of apoptosis in human DOHH-2 cells measured by flow cytometry analysis; format: functional, cell-based
[52] = tested on: DOHH-2; experiment: Induction of cell cycle arrest in human DOHH-2 cells assessed as accumulation at G2/M phase in presence of pictilisib measured by flow cytometry analysis; format: functional, cell-based

Phosphatidylinositol 4,5-bisphosphate 3-kinase catalytic subunit alpha isoform (Homo sapiens), sequence (P42336 whole entry, canonical isoform): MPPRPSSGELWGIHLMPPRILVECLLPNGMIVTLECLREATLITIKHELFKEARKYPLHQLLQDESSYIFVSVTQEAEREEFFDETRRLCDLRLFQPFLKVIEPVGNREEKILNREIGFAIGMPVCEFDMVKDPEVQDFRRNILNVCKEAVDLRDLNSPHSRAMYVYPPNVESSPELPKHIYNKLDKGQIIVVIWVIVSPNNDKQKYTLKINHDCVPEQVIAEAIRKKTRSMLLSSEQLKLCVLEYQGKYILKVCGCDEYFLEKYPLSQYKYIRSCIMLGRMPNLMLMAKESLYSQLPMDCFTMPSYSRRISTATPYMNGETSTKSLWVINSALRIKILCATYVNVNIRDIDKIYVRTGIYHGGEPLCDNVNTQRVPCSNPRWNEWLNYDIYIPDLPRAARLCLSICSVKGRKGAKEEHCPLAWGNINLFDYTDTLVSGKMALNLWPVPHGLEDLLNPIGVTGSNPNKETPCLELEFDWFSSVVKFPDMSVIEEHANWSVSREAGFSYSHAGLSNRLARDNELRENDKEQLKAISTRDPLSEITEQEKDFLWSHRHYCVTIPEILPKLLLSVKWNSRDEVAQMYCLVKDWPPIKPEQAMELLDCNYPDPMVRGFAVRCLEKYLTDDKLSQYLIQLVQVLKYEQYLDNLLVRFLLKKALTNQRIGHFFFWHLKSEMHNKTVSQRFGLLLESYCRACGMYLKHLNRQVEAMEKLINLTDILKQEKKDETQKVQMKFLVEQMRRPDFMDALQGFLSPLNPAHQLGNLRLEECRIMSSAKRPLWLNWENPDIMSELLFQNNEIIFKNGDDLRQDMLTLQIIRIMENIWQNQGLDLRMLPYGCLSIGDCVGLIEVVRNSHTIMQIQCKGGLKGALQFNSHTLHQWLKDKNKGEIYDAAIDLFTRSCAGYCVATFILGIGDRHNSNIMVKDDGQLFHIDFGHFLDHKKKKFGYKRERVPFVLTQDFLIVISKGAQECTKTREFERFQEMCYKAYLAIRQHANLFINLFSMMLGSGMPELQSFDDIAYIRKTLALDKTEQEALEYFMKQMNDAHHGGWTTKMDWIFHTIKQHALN

COc1ccc(-c2cc(OCCN(C)c3ncc(C(=O)NO)cn3)c3ncnc(C)c3c2)cn1
3.6 nM: IC50 [26] | IC50 [35]
5.3 nM: IC50 [30]
17.7 nM: IC50 [40]
5.6 nM: IC50 [16] | IC50 [27]
6.4 nM: IC50 [36]
active: inhibition [1] | inhibition [2] | inhibition [4] | inhibition [5] | inhibition [8] | Activity [13] | inhibition [14] | inhibition [15] | inhibition [17] | Activity [18] Dde | inhibition [19] | inhibition [20] | inhibition [21] | Activity [23] | inhibition [24] | inhibition [25] | Activity [29] | Activity [31] | inhibition [32] | inhibition [33] | inhibition [34] | Activity [37] Dde | Activity [38] | inhibition [39] | inhibition [41] | inhibition [42] | Activity [43] Dde
5.2 nM: IC50 [28]
16 nM: IC50 [11]
7.9 nM: IC50 [6]
9.7 nM: IC50 [10]
7.6 nM: IC50 [3]
7.7 nM: IC50 [9]
6.5 nM: IC50 [7]
21 nM: IC50 [22]
19.2 nM: IC50 [12]

CS(=O)(=O)N1CCN(Cc2cc3nc(-c4cccc5[nH]ncc45)nc(N4CCOCC4)c3s2)CC1
active: Activity [44] | inhibition [45] | inhibition [46] | Activity [47] | Activity [48] | inhibition [49] | inhibition [50] | Activity [51]

O=C(CCCCCCC(=O)Nc1ccccc1)NO
active: Activity [44] | Activity [52] | Activity [47] | Activity [48] | Activity [51]
